From ChEMBL document CHEMBL4251611, “The synthesis, antifungal and apoptotic effects of triazole-oxadiazoles against Candida species” (Eur J Med Chem, 2018)
Values after ≈ are worked out from the molar mass of the structure shown.

Assays:
Candida albicans [1] = experiment: Antifungal activity against Candida albicans ATCC 90028 by broth microdilution assay; format: functional
Nakaseomyces glabratus [2] = experiment: Antifungal activity against Candida glabrata ATCC 90030 by broth microdilution assay; format: functional
Pichia kudriavzevii [3] = experiment: Antifungal activity against Candida krusei ATCC 6258 by broth microdilution assay; format: functional
Candida parapsilosis [4] = experiment: Antifungal activity against Candida parapsilosis ATCC 22019 by broth microdilution assay; format: functional; settings: Lodderomyces parapsilosis
NIH3T3 = experiment: Cytotoxicity against mouse NIH/3T3 cells assessed as reduction in cell viability after 24 hrs by MTT assay; format: cell-based; settings: NIH3T3, 24 h
Candida albicans [5] = experiment: Induction of apoptosis in Candida albicans ATCC 90028 assessed as live cells at antifungal MIC90 after 24 hrs by Annexin V/propidium iodide staining based flow cytometry (reference value: 99.8%); format: functional
Candida albicans [6] = experiment: Induction of apoptosis in Candida albicans ATCC 90028 assessed as early apoptotic cells at antifungal MIC90 after 24 hrs by Annexin V/propidium iodide staining based flow cytometry (reference value: 0%); format: functional
Candida albicans [7] = experiment: Induction of apoptosis in Candida albicans ATCC 90028 assessed as late apoptotic cells at antifungal MIC90 after 24 hrs by Annexin V/propidium iodide staining based flow cytometry (reference value: 0%); format: functional
Candida albicans [8] = experiment: Induction of apoptosis in Candida albicans ATCC 90028 assessed as necrotic cells at antifungal MIC90 after 24 hrs by Annexin V/propidium iodide staining based flow cytometry (reference value: 0.2%); format: functional
Nakaseomyces glabratus [9] = experiment: Induction of apoptosis in Candida glabrata ATCC 90030 assessed as live cells at antifungal MIC90 after 24 hrs by Annexin V/propidium iodide staining based flow cytometry (reference value: 99.5%); format: functional
Nakaseomyces glabratus [10] = experiment: Induction of apoptosis in Candida glabrata ATCC 90030 assessed as early apoptotic cells at antifungal MIC90 after 24 hrs by Annexin V/propidium iodide staining based flow cytometry (reference value: 0%); format: functional
Nakaseomyces glabratus [11] = experiment: Induction of apoptosis in Candida glabrata ATCC 90030 assessed as late apoptotic cells at antifungal MIC90 after 24 hrs by Annexin V/propidium iodide staining based flow cytometry (reference value: 0.2%); format: functional
Nakaseomyces glabratus [12] = experiment: Induction of apoptosis in Candida glabrata ATCC 90030 assessed as necrotic cells at antifungal MIC90 after 24 hrs by Annexin V/propidium iodide staining based flow cytometry (reference value: 0.3%); format: functional
Pichia kudriavzevii [13] = experiment: Induction of apoptosis in Candida krusei ATCC 6258 assessed as live cells at antifungal MIC90 after 24 hrs by Annexin V/propidium iodide staining based flow cytometry (reference value: 97.3%); format: functional
Pichia kudriavzevii [14] = experiment: Induction of apoptosis in Candida krusei ATCC 6258 assessed as early apoptotic cells at antifungal MIC90 after 24 hrs by Annexin V/propidium iodide staining based flow cytometry (reference value: 0.5%); format: functional
Pichia kudriavzevii [15] = experiment: Induction of apoptosis in Candida krusei ATCC 6258 assessed as late apoptotic cells at antifungal MIC90 after 24 hrs by Annexin V/propidium iodide staining based flow cytometry (reference value: 1.4%); format: functional
Pichia kudriavzevii [16] = experiment: Induction of apoptosis in Candida krusei ATCC 6258 assessed as necrotic cells at antifungal MIC90 after 24 hrs by Annexin V/propidium iodide staining based flow cytometry (reference value: 0.9%); format: functional
Candida parapsilosis [17] = experiment: Induction of apoptosis in Candida parapsilosis ATCC 22019 assessed as live cells at antifungal MIC90 after 24 hrs by Annexin V/propidium iodide staining based flow cytometry (reference value: 97.6%); format: functional
Candida parapsilosis [18] = experiment: Induction of apoptosis in Candida parapsilosis ATCC 22019 assessed as early apoptotic cells at antifungal MIC90 after 24 hrs by Annexin V/propidium iodide staining based flow cytometry (reference value: 0.1%); format: functional
Candida parapsilosis [19] = experiment: Induction of apoptosis in Candida parapsilosis ATCC 22019 assessed as late apoptotic cells at antifungal MIC90 after 24 hrs by Annexin V/propidium iodide staining based flow cytometry (reference value: 0.9%); format: functional
Candida parapsilosis [20] = experiment: Induction of apoptosis in Candida parapsilosis ATCC 22019 assessed as necrotic cells at antifungal MIC90 after 24 hrs by Annexin V/propidium iodide staining based flow cytometry (reference value: 1.4%); format: functional
Candida albicans [21] = experiment: Induction of apoptosis in Candida albicans ATCC 90028 assessed as increase in late apoptotic cells at antifungal MIC90 by Annexin V/propidium iodide staining based flow cytometry; format: functional, organism-based; settings: TDE = time-dependent effect
Nakaseomyces glabratus [22] = experiment: Induction of apoptosis in Candida glabrata ATCC 90030 assessed as increase in late apoptotic cells at antifungal MIC90 by Annexin V/propidium iodide staining based flow cytometry; format: functional, organism-based; settings: TDE = time-dependent effect
Pichia kudriavzevii [23] = experiment: Induction of apoptosis in Candida krusei ATCC 6258 assessed as increase in late apoptotic cells at antifungal MIC90 by Annexin V/propidium iodide staining based flow cytometry; format: functional, organism-based; settings: TDE = time-dependent effect
Candida parapsilosis [24] = experiment: Induction of apoptosis in Candida parapsilosis ATCC 22019 assessed as increase in late apoptotic cells at antifungal MIC90 by Annexin V/propidium iodide staining based flow cytometry; format: functional, organism-based; settings: TDE = time-dependent effect

Compound | MIC90 (Candida albicans [1]) [mg/L] | MIC90 (Nakaseomyces glabratus [2]) [mg/L] | MIC90 (Pichia kudriavzevii [3]) [mg/L] | MIC90 (Candida parapsilosis [4]) [mg/L] | IC50 (NIH3T3) [mg/L] | Activity (Candida albicans [5]) [%] | Activity (Candida albicans [6]) [%] | Activity (Candida albicans [7]) [%] | Activity (Candida albicans [8]) [%] | Activity (Nakaseomyces glabratus [9]) [%] | Activity (Nakaseomyces glabratus [10]) [%] | Activity (Nakaseomyces glabratus [11]) [%] | Activity (Nakaseomyces glabratus [12]) [%] | Activity (Pichia kudriavzevii [13]) [%] | Activity (Pichia kudriavzevii [14]) [%] | Activity (Pichia kudriavzevii [15]) [%] | Activity (Pichia kudriavzevii [16]) [%] | Activity (Candida parapsilosis [17]) [%] | Activity (Candida parapsilosis [18]) [%] | Activity (Candida parapsilosis [19]) [%] | other results
Cn1cnnc1SCCc1nnc(SCC(=O)Nc2nc3ccccc3s2)o1 | 125 (≈ 288 µM) | 250 (≈ 577 µM) | 250 (≈ 577 µM) | 250 (≈ 577 µM) | > 500 |  |  |  |  |  |  |  |  |  |  |  |  |  |  |  | 
COc1ccc(NC(=O)CSc2nnc(CCSc3nncn3C)o2)cc1 | 250 (≈ 615 µM) | 250 (≈ 615 µM) | 500 (≈ 1230 µM) | 500 (≈ 1230 µM) | > 500 |  |  |  |  |  |  |  |  |  |  |  |  |  |  |  | 
Cn1cnnc1SCCc1nnc(SCC(=O)Nc2ccc([N+](=O)[O-])cc2)o1 | 62.5 (≈ 148 µM) | 62.5 (≈ 148 µM) | 125 (≈ 297 µM) | 125 (≈ 297 µM) | > 500 | 79.1 | 0.4 | 13.5 | 7 | 78.7 | 0.4 | 1.8 | 19.1 | 70.5 | 0.3 | 3.4 | 25.9 | 93.4 | 0.3 | 4.2 | Activity (Candida parapsilosis [20]): 4.2%
Cn1cnnc1SCCc1nnc(SCC(=O)Nc2nc3ccc([N+](=O)[O-])cc3s2)o1 | 125 (≈ 261 µM) | 500 (≈ 1040 µM) | 500 (≈ 1040 µM) | 62.5 (≈ 131 µM) | > 500 |  |  |  |  |  |  |  |  |  |  |  |  |  |  |  | 
Cn1cnnc1SCCc1nnc(SCC(=O)Nc2ccccc2)o1 | 250 (≈ 664 µM) | 250 (≈ 664 µM) | 500 (≈ 1330 µM) | 500 (≈ 1330 µM) | > 500 |  |  |  |  |  |  |  |  |  |  |  |  |  |  |  | 
Cn1cnnc1SCCc1nnc(SCC(=O)Nc2nc3ccc(Cl)cc3s2)o1 | 125 (≈ 267 µM) | 500 (≈ 1070 µM) | 500 (≈ 1070 µM) | 62.5 (≈ 134 µM) | 422 (≈ 902 µM) |  |  |  |  |  |  |  |  |  |  |  |  |  |  |  | 
Cn1cnnc1SCCc1nnc(SCC(=O)Nc2ccc(F)cc2)o1 | 250 (≈ 634 µM) | 250 (≈ 634 µM) | 500 (≈ 1270 µM) | 500 (≈ 1270 µM) | > 500 |  |  |  |  |  |  |  |  |  |  |  |  |  |  |  | 
Cn1cnnc1SCCc1nnc(SCC(=O)Nc2nc3ccc(F)cc3s2)o1 | 62.5 (≈ 138 µM) | 62.5 (≈ 138 µM) | 62.5 (≈ 138 µM) | 62.5 (≈ 138 µM) | > 500 | 46.9 | 0.1 | 39.5 | 13.5 | 46.4 | 0.1 | 36.6 | 17 | 30.2 | 0 | 42.3 | 27.5 | 40.5 | 0.1 | 41.7 | Activity (Candida parapsilosis [20]): 17.7%; Activity (Candida albicans [21]): Tde; Activity (Nakaseomyces glabratus [22]): Tde; Activity (Pichia kudriavzevii [23]): Tde; Activity (Candida parapsilosis [24]): Tde
Cn1cnnc1SCCc1nnc(SCC(=O)Nc2ccc(Cl)cc2)o1 | 250 (≈ 608 µM) | 250 (≈ 608 µM) | 500 (≈ 1220 µM) | 500 (≈ 1220 µM) | > 500 |  |  |  |  |  |  |  |  |  |  |  |  |  |  |  | 
COc1ccc2nc(NC(=O)CSc3nnc(CCSc4nncn4C)o3)sc2c1 | 125 (≈ 270 µM) | 500 (≈ 1080 µM) | 500 (≈ 1080 µM) | 62.5 (≈ 135 µM) | 485 (≈ 1050 µM) |  |  |  |  |  |  |  |  |  |  |  |  |  |  |  | 
Clc1ccccc1C(c1ccccc1)(c1ccccc1)n1ccnc1 [CLOTRIMAZOLE] | 31.2 (≈ 90.6 µM) | 62.5 (≈ 181 µM) | 1.56 (≈ 4.54 µM) | 1.56 (≈ 4.54 µM) | 289 (≈ 839 µM) | 56.7 | 0.6 | 3.1 | 39.7 | 46.3 | 0.3 | 2.7 | 50.7 | 32.6 | 0.6 | 12.4 | 54.3 | 50.7 | 0.8 | 6.4 | Activity (Candida parapsilosis [20]): 42.2%
CC(=O)N1CCN(c2ccc(OCC3COC(Cn4ccnc4)(c4ccc(Cl)cc4Cl)O3)cc2)CC1 (stereo not drawn) [KETOCONAZOLE] | 62.5 (≈ 118 µM) | 62.5 (≈ 118 µM) | 1.56 (≈ 2.94 µM) | 1.56 (≈ 2.94 µM) | 396 (≈ 745 µM) | 35.3 | 1.1 | 11.2 | 52.4 | 23.7 | 0.1 | 4.1 | 72 | 23.8 | 0.3 | 8.3 | 67.7 | 27 | 0.5 | 15.2 | Activity (Candida parapsilosis [20]): 57.3%
